Source: patent US5663201A, “Desferrioxamine-B salts” (CIBA-GEIGY Corporation, priority 1992, dated 1997)
Counter-ions that a name gives are not always drawn. Like-named read-outs stand apart in the source and are kept apart here. Each block holds one compound with its values, some of them ahead of it.

Legend:
[1] = assay type: physicochemical; conditions: n-octanol/phosphate buffer, pH 7.4
Method: (§1) The partition coefficients of the salts prepared in Examples 1 to 5 between n-octanol and water are determined by the `shake-flask` method of Leo et at, Chem. Rev., 71(6), 525 (1971).
(§2) The n-octanol and aqueous phases are mutually saturated prior to conducting the experiment. The desferrioxamine-B sulphonic acid addition salt is dissolved in the aqueous phase at a concentration of 0.005 mol/l and the partition experiment is performed by shaking the vessel containing the two phases until an equilibrium has been achieved. […] After equilibrium has been achieved, the sample is centrifuged to enable phase separation. Both organic and aqueous phases are analysed for desferrioxamine-B content via extraction of an appropriate aliquot, quenching with an aqueous (for assay of the aqueous phase) or methanolic (for assay of the n-octanol phase) solution of FeCl3, and measurement of the absorption of the characteristic ferrioxamine-B chelate at ca. 450 nm. Respective calibration plots (absorbance vs. concentration of desferrioxamine-B sulphonic acid salt) for the assay of both aqueous and organic phases show a linear response over the concentration range studied. The results obtained are as follows:
The partition coefficients of the salts prepared in Examples 1 to 5 between n-octanol and an aqueous phosphate buffer at pH7.4 having an ionic strength of 0.31 mol/l are determined using the procedure of Examples 6-10. The results obtained are as follows:
The use of n-octanol/aqueous media partition coefficients as a model for the lipophilicity of drugs is well established (see the abovementioned Leo et al reference). The aqueous phase in Examples 11 to 15 simulates physiological conditions.

[2] = assay type: physicochemical; conditions: n-octanol/water, 5000 µM
Method: as §1
as §2, with “follows: […]” for “follows:”

[3] = system: Daudi cell line (B-cell lymphoma); test: iron-chelation bioassay: growth inhibiting effect on cells through iron removal, [3H] Thymidine uptake; assay type: cell-based; conditions: 72 hours, Control (0 μM): Ex 18 22297, Ex 19 23897, listed as octanesulphonate
Method: The iron-chelating properties of salts of the invention in a biological system are determined by means of a bioassay in which the growth inhibiting effect of the salts on cells through iron removal is measured by the uptake of radioactively labelled thymidine into the cells. The bioassay is carried out using a Daudi cell line (B-cell lymphoma), a Roswell Park Memorial Institute (RPMI) 1640 medium containing 1 µM ferric citrate and supplements as low iron washing medium and RPM11640 together with 5% by weight of foetal calf serum as passaging medium.
The cells are fed 24 hours before use. They are washed twice in the low iron washing medium to remove any excess iron and diluted with this medium to a concentration of 0.2×10^6 cells/0.180 ml. To 0.180 ml aliquots are added 0.02 ml of solutions of the desferrioxamine-B salts under test in phosphate-buffered saline (PBS) to give concentrations ranging from a Control containing no salt to a […] solution. The cells are then incubated at 37° C. in an atmosphere containing 5% by volume of carbon dioxide for 72 hours, being pulsed for the last 8 hours of that time with labelled [^3 H] Thymidine at 5 micro Ci/ml. The resulting cells are harvested and their radioactive disintegrations are counted for 10 minutes. The results are shown in the table below as the average of 4 separate experiments (except the Control result in Example 18 which is the average of 3 separate experiments).

[4] = intrinsic dissolution of tablets, Langenbucher flow-through apparatus; assay type: physicochemical; conditions: water, 25° C.
Method: Tablets are prepared from the salts of Examples 1 and 4 by compressing a mixture of 99 parts of the salt and 1 part of magnesium stearate in a 13mm die for 2 minutes under a pressure of 4×10^5 kPa. The intrinsic dissolution rates of the tablets are determined using a Langenbucher flow-through apparatus, with water at 25° C. as the dissolution medium. The amount of desferrioxamine-B dissolved in the medium is measured at intervals using a spectrophotometric assay at 215 nm.

Partition Coefficient [1]: 0.006
Partition Coefficient [2]: 0.008
Structure (SMILES): CC(=O)N(O)CCCCCNC(=O)CCC(=O)N(O)CCCCCNC(=O)CCC(=O)N(O)CCCCCN [Example 2, butane-1-sulphonate salt of desferrioxamine-B]

Partition Coefficient [1]: 0.047
% Desferrioxaine-B salt dissolved ([4]; 1 min, listed as octanesulphonate): 1.71%
% Desferrioxaine-B salt dissolved ([4]; 2 min, listed as octanesulphonate): 3.07%
% Desferrioxaine-B salt dissolved ([4]; 5 min, listed as octanesulphonate): 6.88%
% Desferrioxaine-B salt dissolved ([4]; 10 min, listed as octanesulphonate): 10.56%
% Desferrioxaine-B salt dissolved ([4]; 15 min, listed as octanesulphonate): 14.22%
% Desferrioxaine-B salt dissolved ([4]; 20 min, listed as octanesulphonate): 17.94%
% Desferrioxaine-B salt dissolved ([4]; 30 min, listed as octanesulphonate): 24.73%
% Desferrioxaine-B salt dissolved ([4]; 50 min, listed as octanesulphonate): 37.09%
% Desferrioxaine-B salt dissolved ([4]; 75 min, listed as octanesulphonate): 48.75%
% Desferrioxaine-B salt dissolved ([4]; 100 min, listed as octanesulphonate): 58.34%
% Desferrioxaine-B salt dissolved ([4]; 125 min, listed as octanesulphonate): 66.38%
% Desferrioxaine-B salt dissolved ([4]; 150 min): 72.38%
% Desferrioxaine-B salt dissolved ([4]; 175 min, listed as octanesulphonate): 79.13%
% Desferrioxaine-B salt dissolved ([4]; 200 min, listed as octanesulphonate): 84.91%
% Desferrioxaine-B salt dissolved ([4]; 225 min, listed as octanesulphonate): 89.25%
% Desferrioxaine-B salt dissolved ([4]; 250 min, listed as octanesulphonate): 92.50%
% Desferrioxaine-B salt dissolved ([4]; 275 min, listed as octanesulphonate): 94.91%
% Desferrioxaine-B salt dissolved ([4]; 300 min, listed as octanesulphonate): 96.34%
intrinsic rate of release into the aqueous dissolution medium ([4]; in words): slow
Partition Coefficient [2]: 0.121
Structure (SMILES): CC(=O)N(O)CCCCCNC(=O)CCC(=O)N(O)CCCCCNC(=O)CCC(=O)N(O)CCCCCN [Example 4, octane-1-sulphonate salt of desferrioxamine-B]
Disintegrations Per Minute ([3H] Thymidine uptake) ([3]; 0.5 μM salt): 21830 Disintegrations Per Minute
Disintegrations Per Minute ([3H] Thymidine uptake) ([3]; 1 μM salt): 14765 Disintegrations Per Minute
Disintegrations Per Minute ([3H] Thymidine uptake) ([3]; 2 μM salt): 7651 Disintegrations Per Minute
Disintegrations Per Minute ([3H] Thymidine uptake) ([3]; 3 μM salt): 7109 Disintegrations Per Minute
Disintegrations Per Minute ([3H] Thymidine uptake) ([3]; 4 μM salt): 6280 Disintegrations Per Minute
Disintegrations Per Minute ([3H] Thymidine uptake) ([3]; 5 μM salt): 5373 Disintegrations Per Minute
Disintegrations Per Minute ([3H] Thymidine uptake) ([3]; 6 μM salt): 4122 Disintegrations Per Minute
Disintegrations Per Minute ([3H] Thymidine uptake) ([3]; 7.5 μM salt): 3716 Disintegrations Per Minute
Disintegrations Per Minute ([3H] Thymidine uptake) ([3]; 10 μM salt): 2292 Disintegrations Per Minute
Disintegrations Per Minute ([3H] Thymidine uptake) ([3]; 15 μM salt): 1065 Disintegrations Per Minute
Disintegrations Per Minute ([3H] Thymidine uptake) ([3]; 20 μM salt): 482 Disintegrations Per Minute

Partition Coefficient [1]: 0.028
Partition Coefficient [2]: 0.450
Structure (SMILES): CC(=O)N(O)CCCCCNC(=O)CCC(=O)N(O)CCCCCNC(=O)CCC(=O)N(O)CCCCCN [Example 5, dodecane-1-sulphonate salt of desferrioxamine-B]

Partition Coefficient [1]: 0.010
Partition Coefficient [2]: 0.020
Structure (SMILES): CC(=O)N(O)CCCCCNC(=O)CCC(=O)N(O)CCCCCNC(=O)CCC(=O)N(O)CCCCCN [Example 3, hexane-1-sulphonate salt of desferrioxamine-B]
